Measurements: ChEMBL document CHEMBL5247604, “Discovery of novel hybrids containing clioquinol-1-benzyl-1,2,3,6-tetrahydropyridine as multi-target-directed ligands (MTDLs) against Alzheimer's disease” (Eur J Med Chem, 2022)
Active and inactive are the calls of the source.

Legend:
SH-SY5Y [1] = experiment: Antioxidant activity against okadaic acid-induced ROS generation in human SH-SY5Y cells assessed as reduction in DCF fluorescence intensity at 1 to 10 uM pretreated for 24 hrs followed by okadaic acid addition for 24 hrs by DCFH-DA dye based fluorescence analysis; format: functional, cell-based; conditions: dose 1-10 µM
Mus musculus [2] = experiment: Antialzheimer activity in human oligo-merized amyloid beta (1 to 42 residues)-induced cognitive impairment C57BL/6 mouse model assessed as decrease in escape latency at 5 mg/kg,ip qd for 10 days by Morris water maze test relative to control; format: functional, organism-based; conditions: time 10.0 day
SH-SY5Y [3] = experiment: Antialzheimer activity in human SH-SY5Y cells assessed as inhibition of GA-induced tau hyperphosphorylation at Ser396 residue incubated for 24 hrs by ELISA; format: functional, cell-based
Mus musculus [4] = experiment: Antialzheimer activity in human oligo-merized amyloid beta (1 to 42 residues)-induced cognitive impairment C57BL/6 mouse model assessed as increase duration in novel arm at 5 mg/kg,ip qd for 10 days by Y-maze test relative to control; format: functional, organism-based; conditions: time 10.0 day
Mus musculus [5] = experiment: Antialzheimer activity in human oligo-merized amyloid beta (1 to 42 residues)-induced cognitive impairment C57BL/6 mouse model assessed as decrease IL-1beta level in cortex at 5 mg/kg,ip qd for 10 days by ELISA; format: functional, organism-based; conditions: time 10.0 day
Mus musculus [6] = experiment: Antialzheimer activity in human oligo-merized amyloid beta (1 to 42 residues)-induced cognitive impairment C57BL/6 mouse model assessed as decrease TNF-alpha level in cortex at 5 mg/kg,ip qd for 10 days by ELISA; format: functional, organism-based; conditions: time 10.0 day
SH-SY5Y [7] = experiment: (§1) Neuroprotective activity in human SH-SY5Y cells assessed as inhibition of okadaic acid-induced mitochondrial membrane potential by measuring increase in red-to-green fluorescence intensity ratio pretreated for 24 hrs followed by okadaic acid addition for 24 hrs by JC-1 dye based fluorescence analysis; format: functional, cell-based
SH-SY5Y [8] = experiment: Antialzheimer activity in human SH-SY5Y cells assessed as inhibition of GA-induced tau hyperphosphorylation at Ser396 residue at 0.1 to 3 uM incubated for 24 hrs by ELISA; format: functional, cell-based; conditions: dose 0.1-3 µM
SH-SY5Y [9] = experiment: Antialzheimer activity in human SH-SY5Y cells assessed as inhibition of GA-induced tau hyperphosphorylation at Ser199 residue at 0.1 to 3 uM incubated for 24 hrs by ELISA; format: functional, cell-based; conditions: dose 0.1-3 µM
Mus musculus [10] = experiment: Antialzheimer activity in human oligo-merized amyloid beta (1 to 42 residues)-induced cognitive impairment C57BL/6 mouse model assessed as increase in percentage of time spent in the target quadrant at 5 mg/kg,ip qd for 10 days by Morris water maze test relative to control; format: functional, organism-based; conditions: time 10.0 day
in vivo = conditions: ICR, mouse, po
Description: Acute toxicity in ICR mouse assessed as lethality at 21.30 to 52 mg/kg, po and measured upto 14 days

SH-SY5Y [11] = experiment: Antialzheimer activity in human SH-SY5Y cells assessed as inhibition of GA-induced tau hyperphosphorylation at Ser199 residue incubated for 24 hrs by ELISA; format: functional, cell-based
SH-SY5Y [12] = experiment: Antioxidant activity against okadaic acid-induced ROS generation in human SH-SY5Y cells assessed as reduction in DCF fluorescence intensity pretreated for 24 hrs followed by okadaic acid addition for 24 hrs by DCFH-DA dye based fluorescence analysis; format: functional, cell-based
[13] = Acute toxicity in ICR mouse assessed as altered food consumption at 1200 mg/kg, po and measured after 4 hrs; format: organism-based; conditions: in vivo
[14] = biological target: T1, Amyloid-beta precursor protein (Homo sapiens, UniProt P05067); experiment: Inhibition of AChE induced HFIP-pretreated amyloid beta (1 to 42 ) (unknown origin) aggregation at 0.1 to 10 uM incubated for 24 hr by Thioflavin T based fluorometric assay; conditions: dose 0.1-10 µM
T1 sequence (P05067 whole entry): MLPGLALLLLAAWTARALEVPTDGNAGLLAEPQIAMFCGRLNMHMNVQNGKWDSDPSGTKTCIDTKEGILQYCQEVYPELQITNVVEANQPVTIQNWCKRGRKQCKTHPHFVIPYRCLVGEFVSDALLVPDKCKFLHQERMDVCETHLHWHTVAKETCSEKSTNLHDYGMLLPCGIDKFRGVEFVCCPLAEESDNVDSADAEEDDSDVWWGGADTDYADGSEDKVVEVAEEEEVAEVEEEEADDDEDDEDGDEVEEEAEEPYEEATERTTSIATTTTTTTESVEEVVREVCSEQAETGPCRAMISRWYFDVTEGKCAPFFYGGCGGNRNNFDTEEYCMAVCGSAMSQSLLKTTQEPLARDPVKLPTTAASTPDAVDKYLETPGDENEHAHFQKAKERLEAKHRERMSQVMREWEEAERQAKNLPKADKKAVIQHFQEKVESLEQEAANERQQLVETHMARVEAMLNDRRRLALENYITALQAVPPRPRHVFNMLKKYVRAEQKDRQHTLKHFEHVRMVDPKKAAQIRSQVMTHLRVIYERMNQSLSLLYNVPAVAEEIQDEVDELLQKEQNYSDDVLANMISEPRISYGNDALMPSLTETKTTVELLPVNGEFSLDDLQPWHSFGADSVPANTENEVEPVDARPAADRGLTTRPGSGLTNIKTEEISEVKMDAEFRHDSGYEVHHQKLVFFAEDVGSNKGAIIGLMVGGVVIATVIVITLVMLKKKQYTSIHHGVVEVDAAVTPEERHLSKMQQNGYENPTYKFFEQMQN

[15] = biological target: T1, Amyloid-beta precursor protein; experiment: Inhibition of amyloid beta (1 to 42 ) (unknown origin) self aggregation incubated for 24 hr by Thioflavin T based fluorometric assay
[16] = Acute toxicity in ICR mouse assessed as altered food consumption at 1200 mg/kg, po and measured after 24 hrs; format: organism-based; conditions: in vivo
SH-SY5Y [17] = experiment: Cytotoxicity against human SH-SY5Y cells assessed as reduction in cell viability upto 50 uM incubated for 24 hrs by MTT assay; format: toxicity, cell-based
[18] = Acute toxicity in ICR mouse assessed as altered water consumption at 1200 mg/kg, po and measured after 24 hrs; format: organism-based; conditions: in vivo
[19] = Acute toxicity in ICR mouse assessed as mortality at 1200 mg/kg, po and measured after 14 days; format: organism-based; conditions: in vivo, 336 h, time 14 day
[20] = biological target: T1, Amyloid-beta precursor protein; experiment: Inhibition of Cu2+ induced amyloid beta (1 to 42 ) (unknown origin) aggregation incubated for 24 hr by Thioflavin T based fluorometric assay
[21] = Acute toxicity in ICR mouse assessed as abnormal behavior at 1200 mg/kg, po and measured after 4 hrs; format: organism-based; conditions: in vivo
Mus musculus [22] = experiment: Antialzheimer activity in human oligo-merized amyloid beta (1 to 42 residues)-induced cognitive impairment C57BL/6 mouse model assessed as increase duration in novel arm at 15 mg/kg,ip qd for 10 days by Y-maze test relative to control; format: functional, organism-based; conditions: time 10.0 day
[23] = Acute toxicity in ICR mouse assessed as abnormal behavior at 1200 mg/kg, po and measured after 14 days; format: organism-based; conditions: in vivo, 336 h, time 14 day
Mus musculus [24] = experiment: Antialzheimer activity in human oligo-merized amyloid beta (1 to 42 residues)-induced cognitive impairment C57BL/6 mouse model assessed as decrease IL-1beta level in cortex at 15 mg/kg,ip qd for 10 days by ELISA; format: functional, organism-based; conditions: time 10.0 day
[25] = Acute toxicity in ICR mouse assessed as abnormal behavior at 1200 mg/kg, po and measured after 24 hrs; format: organism-based; conditions: in vivo
Mus musculus [26] = experiment: Antialzheimer activity in scopolamine-induced cognitive impairment ICR mouse model assessed as time latency to reach target at 15 mg/kg,ip qd for 10 days followed by scopolmaine-stimulation measured on day 16 by Morris water maze test (Rvb= 71.89 +/- 25.59 sec); format: functional; conditions: time 10 day
Mus musculus [27] = experiment: Antialzheimer activity in human oligo-merized amyloid beta (1 to 42 residues)-induced cognitive impairment C57BL/6 mouse model assessed as increase in ratio of brain to body weight at 15 mg/kg,ip qd for 10 days by Morris water maze test; format: functional, organism-based; conditions: time 10.0 day
[28] = Metal chelating activity assessed as Fe3+-compound complex formation by measuring red shift in presence of FeCl3 at 40 uM incubated for 30 mins by UV-Visible spectrophotometry
Mus musculus [29] = experiment: Antialzheimer activity in human oligo-merized amyloid beta (1 to 42 residues)-induced cognitive impairment C57BL/6 mouse model assessed as decrease TNF-alpha level in cortex at 15 mg/kg,ip qd for 10 days by ELISA; format: functional, organism-based; conditions: time 10.0 day
SH-SY5Y [30] = experiment: as §1, with “ratio at 1 to 10 uM” for “ratio”; format: functional, cell-based; conditions: dose 1-10 µM
Acetylcholinesterase [31] = biological target: Acetylcholinesterase (Electrophorus electricus, UniProt O42275); experiment: Inhibition of electric eel AChE using acetylthiocholine iodide as substrate preincubated for 15 mins followed by substrate addition by Ellman's method
Acetylcholinesterase (Electrophorus electricus, UniProt O42275), sequence (O42275 whole entry): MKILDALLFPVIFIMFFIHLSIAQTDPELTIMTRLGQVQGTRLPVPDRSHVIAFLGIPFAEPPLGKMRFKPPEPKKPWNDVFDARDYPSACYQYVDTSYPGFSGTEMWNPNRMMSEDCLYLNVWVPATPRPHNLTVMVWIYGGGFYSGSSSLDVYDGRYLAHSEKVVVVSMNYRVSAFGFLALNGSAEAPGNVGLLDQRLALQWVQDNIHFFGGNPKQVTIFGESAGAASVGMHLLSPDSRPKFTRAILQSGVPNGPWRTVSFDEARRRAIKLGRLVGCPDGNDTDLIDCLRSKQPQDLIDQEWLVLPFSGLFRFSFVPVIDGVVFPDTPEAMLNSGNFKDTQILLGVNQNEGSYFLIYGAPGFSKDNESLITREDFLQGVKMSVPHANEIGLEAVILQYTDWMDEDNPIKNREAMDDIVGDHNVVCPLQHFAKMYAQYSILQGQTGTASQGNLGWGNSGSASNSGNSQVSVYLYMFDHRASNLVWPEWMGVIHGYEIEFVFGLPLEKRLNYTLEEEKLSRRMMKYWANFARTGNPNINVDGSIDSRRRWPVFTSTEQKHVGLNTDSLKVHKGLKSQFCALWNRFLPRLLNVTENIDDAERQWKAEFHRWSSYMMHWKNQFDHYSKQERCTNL

[32] = Metal chelating activity assessed as Zn2+-compound complex formation by measuring red shift in presence of ZnCl2 at 40 uM incubated for 30 mins by UV-Visible spectrophotometry
Mus musculus [33] = experiment: Antialzheimer activity in scopolamine-induced cognitive impairment ICR mouse model assessed as distance to reach target at 15 mg/kg,ip qd for 10 days followed by scopolmaine-stimulation measured on day 16 by Morris water maze test (Rvb= 16.93 +/- 5.88 meter); format: functional; conditions: time 10 day
Mus musculus [34] = experiment: Antialzheimer activity in human oligo-merized amyloid beta (1 to 42 residues)-induced cognitive impairment C57BL/6 mouse model assessed as decrease in escape latency at 15 mg/kg,ip qd for 10 days by Morris water maze test relative to control; format: functional, organism-based; conditions: time 10.0 day
[35] = Acute toxicity in ICR mouse assessed as altered water consumption at 1200 mg/kg, po and measured after 14 days; format: organism-based; conditions: in vivo, 336 h, time 14 day
[36] = Acute toxicity in ICR mouse assessed as mortality at 1200 mg/kg, po and measured after 24 hrs; format: organism-based; conditions: in vivo
Acetylcholinesterase [37] = biological target: Acetylcholinesterase (Homo sapiens, UniProt P22303); experiment: Inhibition of AChE in human SH-SY5Ycells assessed as reduction AChE activity using acetylthiocholine as substrate incubated for 24 hrs by DTNB based Ellman's method; format: cell-based, SH-SY5Y
Acetylcholinesterase (Homo sapiens, UniProt P22303), sequence (P22303 whole entry): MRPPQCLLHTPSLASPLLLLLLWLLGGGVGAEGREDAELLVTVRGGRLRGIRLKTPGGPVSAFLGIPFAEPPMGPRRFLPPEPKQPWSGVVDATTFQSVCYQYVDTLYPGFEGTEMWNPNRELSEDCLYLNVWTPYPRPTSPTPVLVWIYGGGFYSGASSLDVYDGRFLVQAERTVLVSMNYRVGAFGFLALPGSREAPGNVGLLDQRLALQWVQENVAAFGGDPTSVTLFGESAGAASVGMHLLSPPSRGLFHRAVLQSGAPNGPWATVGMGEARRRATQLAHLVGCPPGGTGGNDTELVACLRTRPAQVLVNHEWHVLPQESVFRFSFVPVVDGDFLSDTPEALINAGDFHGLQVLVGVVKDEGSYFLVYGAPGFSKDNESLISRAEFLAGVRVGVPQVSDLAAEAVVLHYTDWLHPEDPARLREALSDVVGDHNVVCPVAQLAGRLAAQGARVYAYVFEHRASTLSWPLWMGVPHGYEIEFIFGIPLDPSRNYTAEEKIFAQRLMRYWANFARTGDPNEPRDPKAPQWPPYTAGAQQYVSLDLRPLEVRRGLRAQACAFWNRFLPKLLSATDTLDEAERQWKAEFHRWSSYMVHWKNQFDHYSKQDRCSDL

[38] = Metal chelating activity assessed as Cu2+-compound complex formation by measuring red shift in presence of CuSO4 at 40 uM incubated for 30 mins by UV-Visible spectrophotometry
[39] = Acute toxicity in ICR mouse assessed as change in body weight at 1200 mg/kg, po and measured after 24 hrs; format: organism-based; conditions: in vivo
[40] = Metal chelating activity assessed as Fe2+-compound complex formation by measuring red shift in presence of FeSO4 at 40 uM incubated for 30 mins by UV-Visible spectrophotometry
[41] = Acute toxicity in ICR mouse assessed as mortality at 1200 mg/kg, po and measured after 4 hrs; format: organism-based; conditions: in vivo
[42] = Acute toxicity in ICR mouse assessed as change in body weight at 1200 mg/kg, po and measured after 14 days; format: organism-based; conditions: in vivo, 336 h, time 14 day
[43] = biological target: T1, Amyloid-beta precursor protein; experiment: Inhibition of AChE induced HFIP-pretreated amyloid beta (1 to 42 ) (unknown origin) aggregation incubated for 24 hr by Thioflavin T based fluorometric assay
Mus musculus [44] = experiment: Antialzheimer activity in human oligo-merized amyloid beta (1 to 42 residues)-induced cognitive impairment C57BL/6 mouse model assessed as increase in percentage of time spent in the target quadrant at 15 mg/kg,ip qd for 10 days by Morris water maze test relative to control; format: functional, organism-based; conditions: time 10.0 day
[45] = Metal chelating activity assessed as Al3+-compound complex formation by measuring red shift in presence of AlCl3 at 40 uM incubated for 30 mins by UV-Visible spectrophotometry
[46] = Acute toxicity in ICR mouse assessed as change in body weight at 1200 mg/kg, po and measured after 4 hrs; format: organism-based; conditions: in vivo
[47] = biological target: T1, Amyloid-beta precursor protein; experiment: Inhibition of Cu2+ induced amyloid beta (1 to 42 ) (unknown origin) aggregation assessed as reduction in fibrils incubated for 24 hr by TEM analysis
[48] = Acute toxicity in ICR mouse assessed as altered food consumption at 1200 mg/kg, po and measured after 14 days; format: organism-based; conditions: in vivo, 336 h, time 14 day
[49] = Acute toxicity in ICR mouse assessed as altered water consumption at 1200 mg/kg, po and measured after 4 hrs; format: organism-based; conditions: in vivo

COc1cc2c(cc1OC)C(=O)C(CC1CCN(Cc3ccccc3)CC1)C2 (configuration not stated) [DONEPEZIL]
326 µM: IC50 (SH-SY5Y [7])
202 µM: IC50 (SH-SY5Y [12])
35 µM: IC50 (SH-SY5Y [11])
155 µM: IC50 (SH-SY5Y [3])
active: Activity (SH-SY5Y [1]) | Activity (Mus musculus [2]) | Activity (Mus musculus [4]) | Activity (Mus musculus [5]) | Activity (Mus musculus [6]) | Activity (SH-SY5Y [8]) | Activity (SH-SY5Y [9]) | Activity (Mus musculus [10])
28.1 mg/kg: LD50 at 336 h (in vivo)

Cl.Oc1cccc2ccc(/C=C/C3=CCN(Cc4ccccc4C(F)(F)F)CC3)nc12
Non-Toxic: Activity [13] | Activity [16] | Activity (SH-SY5Y [17]) | Activity [18] | Activity [19] | Activity [21] | Activity [23] | Activity [25] | Activity [35] | Activity [36] | Activity [39] | Activity [41] | Activity [42] | Activity [46] | Activity [48] | Activity [49]
35.22 s: Time (Mus musculus [26])
213 µM: IC50 (SH-SY5Y [12])
8.05 m: Activity (Mus musculus [33])
434 µM: IC50 (SH-SY5Y [7])
138 µM: IC50 (SH-SY5Y [3])
161 µM: IC50 (Acetylcholinesterase [37])
inactive: inhibition [15]
1660 µM: IC50 [43]
82 µM: IC50 (SH-SY5Y [11])
active: inhibition [14] Dose-Dependent Effect | Activity (SH-SY5Y [1]) | inhibition [20] | Activity (Mus musculus [22]) | Activity (Mus musculus [24]) | Activity (Mus musculus [27]) | Activity [28] | Activity (SH-SY5Y [8]) | Activity (Mus musculus [29]) | Activity (SH-SY5Y [30]) | Activity [32] | Activity (Mus musculus [34]) | Activity [38] | Activity (SH-SY5Y [9]) | Activity [40] | Activity (Mus musculus [44]) | Activity [45] | inhibition [47]
0.11 µM: IC50 (Acetylcholinesterase [31])
